For two compounds, IC50 results are on record in patent publication US5302591A, “Benzodiazepine derivatives” (Merck Sharpe & Dohme Ltd., priority 1992, dated 1994).

Structures are written as SMILES.

The target in one assay is T1, CCK receptor (pancreas) (Rattus norvegicus, UniProt P30551).
T1 construct: The whole pancreas was dissected free of fat tissue and was homogenized; from tissue; host or cells: rat whole pancreas membranes
T1 sequence (P30551 1-444): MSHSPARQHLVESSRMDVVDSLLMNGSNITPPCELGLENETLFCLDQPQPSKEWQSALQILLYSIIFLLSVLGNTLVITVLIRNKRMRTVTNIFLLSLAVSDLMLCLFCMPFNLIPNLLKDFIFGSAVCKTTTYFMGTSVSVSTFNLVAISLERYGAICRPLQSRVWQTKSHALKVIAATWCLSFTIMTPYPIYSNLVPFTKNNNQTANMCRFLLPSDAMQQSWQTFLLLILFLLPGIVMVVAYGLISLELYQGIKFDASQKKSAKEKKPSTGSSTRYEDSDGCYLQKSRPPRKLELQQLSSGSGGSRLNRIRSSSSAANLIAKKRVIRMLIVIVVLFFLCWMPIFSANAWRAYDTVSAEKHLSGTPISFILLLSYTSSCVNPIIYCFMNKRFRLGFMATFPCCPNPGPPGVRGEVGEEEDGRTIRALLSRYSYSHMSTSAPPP
Kind of assay: CCK Receptor Binding (Pancreas), inhibition of 125I-CCK-8 binding. Details: species or system rat (male Sprague-Dawley). Conditions: rat pancreas membranes, 50 pM 125I-CCK-8, pH 6.5, 25° C., 2 hours. How it is done:
1. CCK Receptor Binding (Pancreas)
CCK-8 sulphated was radiolabelled with ^125 I-Bolton Hunter reagent (2000 Ci/mmole). Receptor binding was performed according to Chang and Lotti (Proc. Natl. Acad. Sci. 83, 4923-4926, 1986) with minor modifications.
Male Sprague-Dawley rats (150-200 g) were sacrificed by decapitation. The whole pancreas was dissected free of fat tissue and was homogenized in 25 volumes of ice-cold 10 mM N-2-hydroxyethyl-piperazine-N'-2-ethane sulphonic acid (HEPES) buffer with 0.1% soya bean trypsin inhibitor (pH 7.4 at 25° C.) with a Kinematica Polytron. The homogenates were centrifuged at 47,800 g for 10 min. Pellets were resuspended in 10 volumes of binding assay buffer (20 mM (HEPES)), 1 mM ethylene glycol-bis-(β-aminoethylether-N,N'-tetraacetic acid) (EGTA), 5 mM MgCl2, 150 mM NaCl, bacitracin 0.25 mg/ml, soya bean trypsin inhibitor 0.1 mg/ml, and bovine serum albumin 2 mg/ml pH 6.5 at 25° C.) using a Teflon (trademark) homogenizer, 15 strokes at 500 rpm. The homogenate was further diluted in binding assay buffer to give a final concentration of 0.5 mg original wet weight/1 ml buffer. […] The radioactivity on the filters was counted with a LKB gamma counter. […]

The target in another assay is T2, CCK receptor (brain) (Cavia porcellus, UniProt H0VZC5).
T2 construct: the cortex was removed and homogenized in 25 mL ice-cold 0.32M sucrose; from tissue; host or cells: guinea pig brain cortex P2 membranes
Kind of assay: CCK Receptor Binding (Brain), inhibition of 125I-CCK-8 binding. On the set-up: species or system guinea pig (male Hartley). As to conditions: guinea pig cortex membranes, 50 pM 125I-CCK-8, pH 6.5, 25° C., 2 hours. How it is done: 2. CCK Receptor Binding (Brain)
CCK-8 sulphated was radiolabelled and the binding was performed according to the description for the pancreas method with minor modifications.
Male Hartley guinea pigs (300-500 g) were sacrificed by decapitation and the cortex was removed and homogenized in 25 mL ice-cold 0.32M sucrose. The homogenates were centrifuged at 1000 g for 10 minutes and the resulting supernatant was recentrifuged at 20,000 g for 20 minutes. The P2 pellet was resuspended in binding assay buffer (20 mM HEPES, 5 mM MgCl2, 0.25 mg/ml bacitracin, 1 mM EGTA pH 6.5 at 25° C.), using a Teflon (trademark) homogenizer (5 strokes at 500 rpm) to give a final concentration of 10 mg original wet weight/1.2 ml buffer. For the binding assay, 50 μl of buffer (for total binding) or unlabelled CCK-8 sulphated to give a final concentration of 1 μM (for nonspecific binding) or the compounds of Formula I (for determination of inhibition of ^125 I-CCK-8 binding) and 50 μl of 500 pM ^125 I-CCK-8 (i.e. final concentration of 50 pM) were added to 400 μl of the membrane suspensions in microfuge tubes. All assays were run in duplicate. […] The radioactivity on the filters was counted with a LKB gamma counter. […]

T2 sequence (H0VZC5 entry or part of it): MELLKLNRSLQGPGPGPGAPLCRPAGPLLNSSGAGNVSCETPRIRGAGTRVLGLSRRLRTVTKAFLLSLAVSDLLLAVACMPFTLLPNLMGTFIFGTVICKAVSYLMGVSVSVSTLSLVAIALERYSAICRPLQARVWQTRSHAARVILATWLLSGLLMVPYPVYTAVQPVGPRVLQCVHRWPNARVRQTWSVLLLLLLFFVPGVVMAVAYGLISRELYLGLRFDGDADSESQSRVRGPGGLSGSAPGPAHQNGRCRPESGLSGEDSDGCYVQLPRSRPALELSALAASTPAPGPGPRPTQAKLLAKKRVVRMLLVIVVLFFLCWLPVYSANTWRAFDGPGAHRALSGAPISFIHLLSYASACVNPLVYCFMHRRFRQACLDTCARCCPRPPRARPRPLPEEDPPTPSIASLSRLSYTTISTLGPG

As a reminder, the IC50 is the midpoint of a concentration-inhibition curve. A lower IC50 goes with higher potency. On to `CN1C(=O)C(NC(=O)Nc2cccc(C(=O)NS(=O)(=O)c3ccccc3)c2)N=C(c2ccncc2)c2ccccc21` (racemic) [Example 1, N-[3(R,S)-2,3-Dihydro-1-methyl-2-oxo-5-(pyridin-4-yl)-1H-1,4-benzodiazepin-3-yl]-N'-[3-(phenylsulphonylaminocarbonyl)phenyl]urea], for which the concentration for half-maximal inhibition (IC50) at CCK receptor (pancreas) turned out to be 790 nM; on CCK receptor (brain), 130 nM.

`CC(C)S(=O)(=O)NC(=O)c1cccc(NC(=O)NC2N=C(c3ccncc3)c3ccccc3N(C)C2=O)c1` (racemic) [Example 2, N-[3(R,S)-2,3-Dihydro-1-methyl-2-oxo-5-(pyridin-4-yl)-1H-1,4-benzodiazepin-3-yl)-N'-[3-(isopropylsulphonylaminocarbonyl)phenyl]urea]: the IC50 on CCK receptor (pancreas) amounted to 1630 nM; at CCK receptor (brain), 300 nM.
